Experimental data taken from US7652025B2 (priority 2001, dated 2010).
Counter-ions that a name gives are not always drawn.

How the values were obtained:
[1] = test system: Lipopolysaccharide (LPS)-induced lethal sepsis; parameters: species or system ICR mice; conditions: mouse, in vivo
[2] = test system: experimental sepsis models; conditions: reported in literature; cited from earlier work

CN(C(=O)NCc1cccc(C(F)(F)F)c1)[C@@H]1CC[C@@]2(O)[C@H]3Cc4ccc(O)c5c4[C@@]2(CCN3CC2CC2)[C@H]1O5 [Compound 3, 17-cyclopropylmethyl-3,14β-dihydroxy-4,5α-epoxy-6β-(N-methyl-N′-3-trifluoromethylbenzylureido)morphinan tartaric acid salt]
survival rate at 31 hours after administration of LPS [1]: 70.0%

CN(C(=O)/C=C/c1ccoc1)[C@@H]1CC[C@@]2(O)[C@H]3Cc4ccc(O)c5c4[C@@]2(CCN3CC2CC2)[C@H]1O5.Cl [Compound 1, (−)-17-(cyclopropylmethyl)-3,14β-dihydroxy-4,5α-epoxy-6 [N-methyl-trans-3-(3-furyl)acrylamide]morphinan hydrochloric acid salt]
survival rate after 48 hours [1]: 40% | survival rate at 24 hours after administration of LPS [1]: 80% | survival rate of sepsis model animals (FIG. 1) [1]: increases the survival rate

CN1CC[C@]23c4c5ccc(O)c4O[C@H]2[C@@H](O)C=C[C@H]3[C@H]1C5 [morphine]
survival rate of experimental sepsis models [2]: decrease survival rate

(D)Phe-(D)Phe-(D)Nle-(D)Arg-NH2
survival rate at 24 hours after administration of LPS [1]: 66.7%

C=CCN1CC[C@]23c4c5ccc(O)c4O[C@H]2C(=O)CC[C@@]3(O)[C@H]1C5 [naloxone]
fever of experimental sepsis models [2]: suppresses fever
